According to ChEMBL document CHEMBL1201862, “PubChem BioAssay data set” (2004):
Activity calls are given as the source filed them.

Legend:
[1] = cells; type: functional, cell-based
[2] = biological target: T1, Nuclear receptor subfamily 0 group B member 1 (Homo sapiens, UniProt P51843); type: functional, cell-based;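 note: HEK293T cells transfected with SF-1 and DAX-1 plus StAR promoter luciferase reporter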
T1 sequence (P51843 whole entry): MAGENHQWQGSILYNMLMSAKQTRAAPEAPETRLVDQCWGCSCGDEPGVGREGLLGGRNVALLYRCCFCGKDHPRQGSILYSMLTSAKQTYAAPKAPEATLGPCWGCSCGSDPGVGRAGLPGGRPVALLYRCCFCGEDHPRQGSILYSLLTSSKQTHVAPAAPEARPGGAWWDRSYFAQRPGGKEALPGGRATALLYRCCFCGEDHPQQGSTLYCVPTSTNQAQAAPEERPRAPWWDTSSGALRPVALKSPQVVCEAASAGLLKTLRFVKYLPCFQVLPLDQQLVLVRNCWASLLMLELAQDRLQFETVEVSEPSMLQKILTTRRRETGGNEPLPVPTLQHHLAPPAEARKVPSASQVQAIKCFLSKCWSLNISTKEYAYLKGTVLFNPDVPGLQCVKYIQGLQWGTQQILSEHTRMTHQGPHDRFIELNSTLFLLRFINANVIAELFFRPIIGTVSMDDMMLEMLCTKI

[3] = biological target: Ras and Rab interactor 1/Tyrosine-protein kinase ABL1 (Homo sapiens, UniProt P00519+Q13671); type: functional;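 note: biochemical TR-FRET dose-response test measuring inhibition of binding between Rin1 and Abl proteins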
[4] = biological target: T2, COUP transcription factor 2 (Homo sapiens, UniProt P24468); experiment: Luminescence-based cell-based high throughput dose response assay to identify inhibitors of COUP-TFII (NR2F2).; type: functional;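 note: HEK293 cells transiently cotransfected with COUP-TFII expression vector and reporter; luciferase reporter luminescence driven by COUP-TFII from the pX2-168 reporter plasmid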
T2 sequence (P24468 whole entry): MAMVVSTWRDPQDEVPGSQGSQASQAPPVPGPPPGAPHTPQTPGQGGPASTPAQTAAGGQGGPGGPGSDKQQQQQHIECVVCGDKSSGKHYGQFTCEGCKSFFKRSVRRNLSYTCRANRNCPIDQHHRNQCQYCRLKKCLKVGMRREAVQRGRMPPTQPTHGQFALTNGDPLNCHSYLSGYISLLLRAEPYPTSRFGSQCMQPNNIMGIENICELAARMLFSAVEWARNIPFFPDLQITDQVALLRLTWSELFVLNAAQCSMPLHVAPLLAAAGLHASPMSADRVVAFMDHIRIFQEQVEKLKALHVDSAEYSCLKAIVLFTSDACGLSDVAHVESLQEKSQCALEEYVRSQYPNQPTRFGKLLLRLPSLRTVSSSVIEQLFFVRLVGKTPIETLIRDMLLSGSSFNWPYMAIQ

[5] = biological target: Melanocortin receptor 4 (Homo sapiens, UniProt P32245); type: functional, cell-based;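 note: Cell-based assay with luminescence read-out, confirmatory dose-response testing for agonist activity of biased ligands at MC4R; human U2OS cells with tagged receptor and beta-arrestin; potency of agonists that increase receptor coupling to beta-arrestin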
[6] = biological target: Nuclear receptor subfamily 5 group A member 2 (Homo sapiens, UniProt O00482); type: functional, cell-based;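 note: HEK293T cells transfected with LRH-1 and a StAR promoter luciferase reporter; potency for inhibitors that lower LRH-1 driven reporter light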
[7] = nonselective StAR promoter luciferase inhibitors – cell-based, luminescence, luciferase reporter, counter-screen for LRH-1 inverse agonist project, dose response (AID 651969); type: functional
[8] = biological target: Steroidogenic factor 1 (Homo sapiens, UniProt Q13285); experiment: Counterscreen for inverse agonists of the liver receptor homolog-1 (LRH-1; NR5A2): Luminescence-based cell-based high throughput dose response assay to identify inverse agonists of the Steroidogenic Factor 1 Nuclear Receptor (SF1; NR5A1).; type: functional
[9] = biological target: T3, Small ubiquitin-related modifier 1 (Homo sapiens, UniProt P63165); experiment: SUMO1 protein-protein binding blockers, potency – biochemical, FRET, dose response (AID 624383); type: functional; conditions: read-out: IC50_Mean
[10] = biological target: T3, Small ubiquitin-related modifier 1; experiment: SUMO1 protein interaction blockers, potency – biochemical, fluorescence polarization, uHTS hits, dose response (AID 624382); type: functional; conditions: read-out: IC50_Mean
[11] = biological target: T4, Small ubiquitin-related modifier 2 (Homo sapiens, UniProt P61956); experiment: SUMO2 binding disruption by SUMO1 hits – biochemical, FRET, human SUMO2, uHTS hits, selectivity assay for SUMO1 interaction inhibitor project, dose response (AID 624384); type: functional; conditions: read-out: IC50_Mean
[12] = biological target: T4, Small ubiquitin-related modifier 2; experiment: disruption of SUMO2 interaction with SIM peptide – biochemical, fluorescence polarization, uHTS hits, selectivity assay for SUMO1 interaction inhibitor project, dose response (AID 624385); type: functional; conditions: read-out: IC50_Mean

Sequence of Ras and Rab interactor 1/Tyrosine-protein kinase ABL1 (P00519 whole entry): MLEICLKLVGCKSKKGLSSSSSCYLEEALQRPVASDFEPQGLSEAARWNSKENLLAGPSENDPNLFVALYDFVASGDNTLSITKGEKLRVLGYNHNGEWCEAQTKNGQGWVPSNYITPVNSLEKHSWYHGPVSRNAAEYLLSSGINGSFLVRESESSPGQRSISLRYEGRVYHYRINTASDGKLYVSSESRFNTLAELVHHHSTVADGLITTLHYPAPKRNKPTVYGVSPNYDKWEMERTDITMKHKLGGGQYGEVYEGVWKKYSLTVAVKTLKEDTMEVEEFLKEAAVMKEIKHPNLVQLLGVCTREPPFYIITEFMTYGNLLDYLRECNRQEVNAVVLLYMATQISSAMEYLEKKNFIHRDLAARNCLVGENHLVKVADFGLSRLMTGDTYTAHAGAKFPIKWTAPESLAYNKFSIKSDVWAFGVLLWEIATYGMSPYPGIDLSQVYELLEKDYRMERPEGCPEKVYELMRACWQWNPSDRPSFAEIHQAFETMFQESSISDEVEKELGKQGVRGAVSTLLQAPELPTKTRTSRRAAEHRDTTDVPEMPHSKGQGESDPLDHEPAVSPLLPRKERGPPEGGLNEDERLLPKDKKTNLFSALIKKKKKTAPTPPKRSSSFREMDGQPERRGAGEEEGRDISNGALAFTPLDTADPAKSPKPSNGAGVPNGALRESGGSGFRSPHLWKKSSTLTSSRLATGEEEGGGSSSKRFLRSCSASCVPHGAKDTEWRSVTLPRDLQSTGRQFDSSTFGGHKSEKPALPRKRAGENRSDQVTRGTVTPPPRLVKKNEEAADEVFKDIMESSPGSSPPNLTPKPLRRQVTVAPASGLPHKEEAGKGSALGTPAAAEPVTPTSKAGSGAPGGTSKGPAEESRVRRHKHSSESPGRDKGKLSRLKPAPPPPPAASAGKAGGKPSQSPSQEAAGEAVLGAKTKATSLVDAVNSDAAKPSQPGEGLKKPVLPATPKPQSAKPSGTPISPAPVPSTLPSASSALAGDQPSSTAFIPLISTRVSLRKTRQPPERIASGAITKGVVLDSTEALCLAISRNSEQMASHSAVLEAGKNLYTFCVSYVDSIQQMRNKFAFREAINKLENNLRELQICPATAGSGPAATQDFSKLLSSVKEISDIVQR
Sequence of Ras and Rab interactor 1/Tyrosine-protein kinase ABL1 (Q13671 whole entry): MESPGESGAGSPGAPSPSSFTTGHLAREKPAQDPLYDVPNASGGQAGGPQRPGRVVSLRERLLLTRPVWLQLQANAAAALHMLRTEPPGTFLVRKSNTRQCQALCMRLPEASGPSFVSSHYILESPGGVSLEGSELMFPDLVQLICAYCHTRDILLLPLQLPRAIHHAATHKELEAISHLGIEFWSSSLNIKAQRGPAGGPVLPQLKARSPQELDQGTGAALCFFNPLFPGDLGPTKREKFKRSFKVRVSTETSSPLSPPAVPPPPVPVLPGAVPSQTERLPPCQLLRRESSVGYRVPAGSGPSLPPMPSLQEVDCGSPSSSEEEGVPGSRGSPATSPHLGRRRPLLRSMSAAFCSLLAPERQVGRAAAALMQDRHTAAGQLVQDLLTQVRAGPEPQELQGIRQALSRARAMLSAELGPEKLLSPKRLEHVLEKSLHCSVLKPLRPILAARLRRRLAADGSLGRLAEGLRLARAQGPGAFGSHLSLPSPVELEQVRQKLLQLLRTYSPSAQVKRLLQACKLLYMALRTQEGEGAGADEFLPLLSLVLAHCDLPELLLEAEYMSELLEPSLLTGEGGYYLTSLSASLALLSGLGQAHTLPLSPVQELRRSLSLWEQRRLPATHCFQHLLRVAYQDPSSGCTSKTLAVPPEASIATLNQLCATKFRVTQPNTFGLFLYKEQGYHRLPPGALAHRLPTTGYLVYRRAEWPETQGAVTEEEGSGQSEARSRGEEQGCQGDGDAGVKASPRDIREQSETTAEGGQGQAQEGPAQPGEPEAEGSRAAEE
T3 sequence (P63165 whole entry): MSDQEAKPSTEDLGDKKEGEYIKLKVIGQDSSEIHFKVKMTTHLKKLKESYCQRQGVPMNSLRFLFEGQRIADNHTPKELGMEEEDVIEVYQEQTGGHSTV
T4 sequence (P61956 whole entry): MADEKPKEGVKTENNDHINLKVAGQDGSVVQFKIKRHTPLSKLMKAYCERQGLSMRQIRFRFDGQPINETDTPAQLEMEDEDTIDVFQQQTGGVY
Sequence of Melanocortin receptor 4 (P32245 whole entry): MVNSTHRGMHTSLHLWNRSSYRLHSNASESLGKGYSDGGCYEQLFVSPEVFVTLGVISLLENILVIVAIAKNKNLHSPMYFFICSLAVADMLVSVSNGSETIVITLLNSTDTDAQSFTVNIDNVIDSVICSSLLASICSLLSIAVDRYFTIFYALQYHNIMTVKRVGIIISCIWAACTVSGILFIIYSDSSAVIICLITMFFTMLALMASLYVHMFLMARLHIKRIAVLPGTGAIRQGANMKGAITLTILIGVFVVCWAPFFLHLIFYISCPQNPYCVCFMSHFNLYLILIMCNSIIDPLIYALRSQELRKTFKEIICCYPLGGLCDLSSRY
Sequence of Nuclear receptor subfamily 5 group A member 2 (O00482 whole entry): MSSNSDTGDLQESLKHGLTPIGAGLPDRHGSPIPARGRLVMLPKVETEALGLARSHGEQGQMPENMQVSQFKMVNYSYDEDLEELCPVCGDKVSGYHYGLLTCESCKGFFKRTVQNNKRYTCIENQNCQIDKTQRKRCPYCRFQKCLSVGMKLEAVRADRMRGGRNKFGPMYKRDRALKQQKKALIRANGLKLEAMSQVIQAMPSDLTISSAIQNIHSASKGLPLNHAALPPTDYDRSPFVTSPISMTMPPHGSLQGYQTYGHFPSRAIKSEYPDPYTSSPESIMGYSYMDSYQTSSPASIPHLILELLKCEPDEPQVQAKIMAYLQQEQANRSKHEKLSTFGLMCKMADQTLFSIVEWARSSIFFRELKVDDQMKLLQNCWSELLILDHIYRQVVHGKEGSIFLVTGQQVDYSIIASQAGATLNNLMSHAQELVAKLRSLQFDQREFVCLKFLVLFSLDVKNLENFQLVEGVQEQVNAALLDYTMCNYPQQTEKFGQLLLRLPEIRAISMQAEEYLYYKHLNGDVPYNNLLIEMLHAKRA
Sequence of Steroidogenic factor 1 (Q13285 whole entry): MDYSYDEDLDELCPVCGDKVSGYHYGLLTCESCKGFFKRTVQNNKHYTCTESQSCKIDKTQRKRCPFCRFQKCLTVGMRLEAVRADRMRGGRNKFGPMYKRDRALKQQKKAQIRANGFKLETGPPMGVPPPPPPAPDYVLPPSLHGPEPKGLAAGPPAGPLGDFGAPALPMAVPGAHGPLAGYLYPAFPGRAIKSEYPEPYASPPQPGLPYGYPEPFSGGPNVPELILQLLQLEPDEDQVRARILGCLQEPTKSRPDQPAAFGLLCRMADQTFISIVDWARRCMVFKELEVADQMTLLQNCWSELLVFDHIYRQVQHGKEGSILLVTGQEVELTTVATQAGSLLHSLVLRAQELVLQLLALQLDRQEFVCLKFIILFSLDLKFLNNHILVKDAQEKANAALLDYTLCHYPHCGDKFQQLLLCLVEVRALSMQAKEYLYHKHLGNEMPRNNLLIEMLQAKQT

**Q.** For `O=c1oc2ccccc2cc1-c1nc2c(s1)CCCC2`, which IC50 [1] is on record?
**A.** Its IC50 is > 67.5 µM (inactive).

**Q.** And the IC50 [2]?
**A.** Its IC50 is > 0.278 µM (active).

**Q.** For `CCCCc1nnc(NC(=O)c2ccc(OCc3c(C)noc3C)cc2)s1`, which IC50 [3] is on record?
**A.** The IC50 was > 73.5 µM (inactive).

**Q.** For `OC[C@@H]1CN(Cc2ccc(-c3ccccc3)cc2)C[C@H](n2cnc3c(NC4CCC4)ncnc32)O1`, which IC50 [4] is on record?
**A.** The IC50 was 8.62 µM (active).

**Q.** And the IC50 [3]?
**A.** Its IC50 is 16.7 µM (inactive).

**Q.** With `CC(=O)Nc1cc(-c2cccnc2)cn2c(-c3ccc(F)cc3)cnc12` as the compound, how does the EC50 [5] read?
**A.** The EC50 was > 89.2 µM (inactive).

**Q.** What about the IC50 [6] of the same compound?
**A.** The IC50 was 22.3 µM (inactive).

**Q.** What about the IC50 [7] of the same compound?
**A.** Its IC50 is 35.9 µM (inactive).

**Q.** What about the IC50 [8] of the same compound?
**A.** Its IC50 is 4.56 µM (active).

**Q.** What does the source list for `C[C@H]([C@@H](O)[C@@H](O)[C@@H](C)C(C)(C)C)[C@H]1CC[C@H]2[C@@H]3CC[C@H]4C[C@H](OS(=O)(=O)O)[C@@H](OS(=O)(=O)O)C[C@]4(C)[C@H]3CC[C@]12C`?
**A.** IC50 [9]: 22.5 µM (inactive); IC50 [10]: 11 µM (active); IC50 [11]: 16.3 µM (active); IC50 [12]: 25.5 µM (inactive)
